# Columns and labels:
# Format in all cases: cell-based, human
# [1] = test system: ATR-H cells; test: Free cellular H2S measurement by HPLC after MBB derivatization, ATR-H cells
# Protocol: (§1) Cells: The human colon cancer cell line DLD1 cell line containing wild-type ATR (ATR cells) or the ATR-Seckel knock-in hypomorphic mutation (ATR-H cells) were a kind gift from Dr. Fred Bunz of the Department of Radiation Oncology and Molecular Radiation Sciences, The Johns Hopkins University School of Medicine. The cells were cultured in DMEM with 5% FBS, 1% penicillin/streptomycin.
# (§2) H2S measurements: Bioavailable sulfide levels were measured as previously reported. Levels of free sulfide (H2S) in ATR and ATR-H cells were measured by high performance liquid chromatography (HPLC) after derivatization with excess MBB as stable products sulfide-dibimane (SDB). Briefly, ATR and ATR-H cells were homogenized in Tris.HCl buffer [100 mM Tris.HCl (pH 9.5) and 0.1 mM diethylenetriaminepentaacetic acid (DTPA)]. Cell lysates were derivatized with MBB and then measured by Shimadzu Prominence 20 A equipment with RF-10AXL (excitation wavelength: […] and emission wavelength: […]) and an Eclipse XDB-C18 column (4.6×50 mm, 5 μm). Typical retention times of SDB were 16.5 min. H2S levels were calculated according to the standard SDB.
# [2] = test system: ATR cells; test: Free cellular H2S measurement by HPLC after MBB derivatization, ATR cells
# Protocol: as §1, §2
# [3] = test system: ATR-pS435 in ATR-H cells; test: Western blot of ATR serine 435 phosphorylation, ATR-H cells
# Protocol: as §1
# (§3) Western blotting: To prepare whole cell lysates from ATR and ATR-H cells, the cells were grown in 6-well plates, the medium was removed, and 300 μl of SDS sample buffer (62.5 mM Tris-HCl (pH 6.8), 2% w/v SDS, 10% glycerol, 50 mM dithiothreitol, 0.1% w/v bromphenol blue) was added to each well. Following lysis in SDS sample buffer, lysates were harvested with cell scrapers and collected in Eppendorf tubes. The lysates were boiled, centrifuged, and frozen at −20° C. until gel electrophoresis was performed. The protein concentrations were measured by Bio-rad DC protein assay. Twenty […] of total protein supernatant extract was mixed with 2×SDS loading buffer according to protein concentration. Lysates separated by SDS-PAGE were transferred to polyvinylidene difluoride membranes, and membranes were blocked in 5% nonfat dry milk before the addition of primary antibodies. Densitometry was performed with ImageJ software version 1.45 s. All western blots were performed at least in triplicate.
# [4] = test system: CHK1 serine-345 phosphorylation in ATR cells; test: Western blot of CHK1 serine 345 phosphorylation, ATR cells
# Protocol: as §1, §3
# [5] = test system: DLD1 cell line containing wild-type ATR (ATR cells); test: Colony forming-efficiency assay, ATR wild-type cells; details: 11 days; for sensitivity of colony formation to t-BOOH after H2S inhibitor pretreatment: 2 h 1 mM β-cyano-l-alanine, then 15 min 50, 100 or 200 μM t-BOOH
# Protocol: as §1
# (§4) Colony forming-efficiency assay: Colony forming-efficiency (CEFA) experiments were performed. In brief, exponentially growing cells were plated for 12 h at 2000 cells/100 mm tissue culture dish in 10 ml appropriate media. The cells were pretreated for 2 h with either an H2S inhibitor (β-cyano-1-alanine, 1 mM) or donor (diallyl trisulfide, 20 uM), washed 3× with 1× phospate buffered saline, the media replaced, and the cells were immediately treated with for 15 min with 50, 100, and 200 μM t-butyl hydroperoxide (t-BOOH). Following treatment, the cells were washed 3× with phosphate-buffered saline, the media replaced and the cells cultured for 11 days. The resulting colonies were fixed and stained by water: methanol addition (1:1) containing crystal violet (1 g/l). “Colonies” consisted of cell clusters containing greater than 50 cells when counted by dissecting microscopy.
# [6] = test system: DLD1 cell line containing the ATR-Seckel knock-in hypomorphic mutation (ATR-H cells); test: Colony forming-efficiency assay, ATR-H cells
# Protocol: as §1, §4
# [7] = test system: ATR-pS435 in ATR cells; test: Western blot of ATR serine 435 phosphorylation, ATR cells
# Protocol: as §1, §3
# [8] = test system: ATR-H cells; test: dsDNA breaks in metaphase chromosomal preparations, ATR-H cells
# Protocol: as §1
# (§5) Chromosomal preparation and analysis: One 100-mm tissue culture plate/treatment of logarithmically growing ATR and ATR-H cells at 50% confluence were treated with or without, 1 mM H2S inhibitor β-cyano-l-alanine for two hours, followed by a 15-minute treatment with 10 μM t-BOOH. Following this treatment, the cells were washed 3× with phosphate-buffered saline, the media replaced, and the cells cultured for 1 h. Colcemid (100 ng/ml) was then added for 4 h and the cells harvested by washing 2× in 1×PBS, followed by trypsinization and transference to a 15 ml tube. Two-ml of DMEM with 5% FBS was added/tube and the cells were pelleted 5 min at 500×g. The cells were re-suspended in 5 ml […] and incubated 15 min at 37° C. About 200 μl of fresh methanol: glacial acetic acid at 3:1 (Carnoy's fixative) was added, the cells gently vortexed, and pelleted for 5 min at 500×g. The supernatant was removed and 5 ml of Carnoy's fixative added with gentle vortexing. The cells were pelleted for 5 min at 500×g, the supernatant removed, and 5 ml of Carnoy's fixative was added with gentle vortexing. Chromosomal preparations were made by pelleting the preparations for 5 min at 500×g, removing the supernatant, dropping on slides, drying for 30 min at 90° C., Giemsa staining, washing, and cover-slipping. Each data point represents 5000 individual chromosomal observations preformed under oil immersion microscopy done in triplicate.
# [9] = test system: ATR cells; test: dsDNA breaks in metaphase chromosomal preparations, ATR cells; details: 2 h 1 mM β-cyano-l-alanine followed by 10 μM t-BOOH
# Protocol: as §1
# as §5, with “The cells were pelleted for 5 min at 500×g, the supernatant removed, and 5 ml of Carnoy's fixative was added with gentle vortexing. Chromosomal preparations were made by pelleting the preparations for 5 min at 500×g, removing the supernatant, dropping on slides, drying for 30 min at 90° C., Giemsa staining, washing, and cover-slipping. Each data point represents 5000 individual chromosomal observations preformed under oil immersion microscopy done in triplicate.” left out
# [10] = test system: CHK1 serine-345 phosphorylation in ATR-H cells; test: Western blot of CHK1 serine 345 phosphorylation, ATR-H cells; details: 2 h 1 mM β-cyano-l-alanine with or without 15 min 10 μM t-BOOH
# Protocol: as §1, §3
# [11] = ATR wild-type cells, 2 h 1 mM β-cyano-l-alanine
smiles,measurement,setting,value
Nc1nc(N)c(N=O)c(OCC2CCCCC2)n1 [NU6027],cellular free H2S concentration,[1]; 2 h 12 μM NU6027,but not the ATR-H cells
same,cellular free H2S concentration,[2]; 2 h 12 μM NU6027,significantly decreased
C=CCSSSCC=C [diallyl trisulfide],ATR-pS435 level,[3]; 2 h 20 μM diallyl trisulfide,not affected by any treatment
same,"CHK1 serine-345 phosphorylation after t-BOOH, H2S donor pretreatment","[4]; ATR wild-type cells, H2S donor pretreatment, then t-BOOH",did not significantly alter
same,"colony formation, H2S donor pretreatment",[5]; 2 h 20 μM diallyl trisulfide,significantly decreased
same,"colony formation, H2S donor pretreatment","[6]; 2 h 20 μM diallyl trisulfide, 11 days",significantly decreased
same,ATR-pS435 level,"[7]; ATR wild-type cells, 2 h 20 μM diallyl trisulfide",inhibited this phosphorylation
same,cellular free H2S concentration,[2]; 2 h 20 μM diallyl trisulfide,suppressed
"CC(C)(C)OO [t-BOOH, t-butyl hydroperoxide]",ATR-pS435 level,"[3]; 100 μM t-BOOH 15 min, then 45 min in media",not increased
same,colony formation suppression by t-BOOH,"[5]; 15 min 50, 100 or 200 μM t-BOOH",colony formation suppression was t-BOOH dose-dependent
same,colony formation suppression by t-BOOH,"[6]; 15 min 50, 100 or 200 μM t-BOOH, 11 days",colony formation suppression was t-BOOH dose-dependent
same,induction of ATR-pS435 levels,"[7]; ATR wild type cells, 100 μM t-BOOH 15 min, then 45 min in media",~50%
same,dsDNA break formation,[8]; 15 min 10 μM t-BOOH alone,significantly increased dsDNA break formation
N#CC[C@H](N)C(=O)O [β-cyano-l-alanine],ATR-pS435 level,[3]; 2 h 1 mM β-cyano-l-alanine,not affected by any treatment
same,"CHK1 serine-345 phosphorylation after t-BOOH, with versus without H2S inhibitor pretreatment","[4]; ATR cells, 2 h 1 mM β-cyano-l-alanine, then 15 min 10 μM t-BOOH, harvest at 45 min",significantly increased
same,sensitivity of colony formation to t-BOOH after H2S inhibitor pretreatment,[5],slightly increased the sensitivity of the ATR cells
same,sensitivity of colony formation to t-BOOH after H2S inhibitor pretreatment,[5]; listed as H2S inhibitor,only significantly potentiated t-BOOH toxicity at the two higher doses
same,cellular free H2S concentration,[1]; 2 h 1 mM β-cyano-l-alanine,significantly lowered
same,dsDNA breaks,[9],significantly increased dsDNA breaks
same,"colony formation, H2S inhibitor pretreatment with 200 μM t-BOOH versus 200 μM t-BOOH alone",[6]; 200 μM t-BOOH,not significantly different
same,"colony formation, H2S inhibitor by itself","[6]; 2 h 1 mM β-cyano-l-alanine, no t-BOOH, 11 days",suppressed ATR-H cell colony formation
same,sensitivity of colony formation to t-BOOH after H2S inhibitor pretreatment,"[6]; 2 h 1 mM β-cyano-l-alanine, then 15 min 50, 100 or 200 μM t-BOOH, 11 days, compared to ATR wild-type cells",significantly more sensitive to the same t-BOOH exposures
same,ATR-pS435 level,[7]; [11],increased ATR-pS435
same,increase of ATR-pS435 compared to untreated cell phosphorylation levels,[7]; [11],~50%
same,dsDNA breaks,[8]; 1 mM β-cyano-l-alanine alone,significantly increased dsDNA breaks
same,dsDNA breaks,[8]; 2 h 1 mM β-cyano-l-alanine followed by 10 μM t-BOOH,significantly increased dsDNA breaks
same,CHK1 serine-345 phosphorylation level changes,[10],failed to show significant CHK1 serine-345 phosphorylation level changes
same,cellular free H2S concentration,[2]; 2 h 1 mM β-cyano-l-alanine,significantly lowered

# Source: patent US11510925B2, “Methods and therapeutics to regulate hydrogen sulfide bioavailability” (Board of Supervisors of Louisiana State University and …, priority 2018, dated 2022)
